In experiment [1] the target is T1, BRD4 BD1 (Homo sapiens, UniProt O60885).
T1 construct: His-tagged BRD4 BD1 (44-160); made in house
Description: BRD4 BD1 Fluorescence Polarization (FP) competition binding assay. To be noted: BRD4 BD1 40 nM, probe PFI-411FP 2 nM. How it is done: Compound binding to BRD4 BD1 was assessed with a FP competition binding assay. […] All assay components were diluted in 50 mM HEPES pH 7.4 containing 0.08% bovine serum albumin (assay buffer). To start the assay, 8 μL of BRD4 BD1 was added to each well of a low volume 384-well black flat bottom microtiter plate (Corning 3820) containing 4 μl of various concentrations of test compound (each plate also contained positive and negative control wells to define the upper and lower limits of the assay signal). After addition of BRD4 BD1, the assay plate was incubated at room temperature (RT, 20° C.). After 15 minutes, 4 μL of PFI-411FP was added to each well and the assay plate was placed in the dark at RT. The final assay concentration (FAC) of PFI-411FP was 2 nM, the FAC of BRD4 BD1 was 40 nM, the FAC of test compound ranged from 120 to 0.0012 μM and the FAC of DMSO was 0.4%. After 60 min, polarization values were measured with an Envision 2103 multilabel reader (Perkin Elmer) using a Cy5 dual enhanced mirror and excitation at 620 nm and emission at 688 nm. The percent (%) effect was calculated for each concentration of test compound and was relative to the amount of polarization signal produced by the positive and negative control wells contained within each assay plate. The concentrations and % effect values for test compounds were plotted versus each other with a proprietary curve fitting program using a four-parameter logistic dose response equation and the concentration of compound required for 50% effect (IC50) was determined. The Ki values of competitive inhibitors were calculated using the equation described by Nikolovska-Coleska et al. (Development and optimization of a binding assay for the XIAP BIR3 domain using fluorescence polarization. Analytical Biochemistry (2004) 332: 261-273).
Background: Polarisation of emitted light reports the rotation of a fluorescent probe.

Experiment [2] concerns LPS-induced IL-6 production in human whole blood. Description: IL-6 human whole blood (HWB) assay, LPS-stimulated, HTRF detection. In kind it is cell-based. The settings on record: 1 ng/ml LPS, 4 hours. As for the experimental part: Compound effect on IL-6 production was determined using lipopolysaccharide (LPS)-stimulated human whole blood and an HTRF (Homogeneous Time-Resolved Fluorescence) IL-6 detection kit (Human IL6 HTRF Assay CisBio 62IL6PEC). HWB was collected by venous puncture from healthy donors, transferred to a 50 ml polypropylene tube containing sodium heparin (14.3 units per mL of HWB) and then placed in a 37° C. water bath until use. To start the assay, 80 μL of heparin-treated HWB containing 1 ng/ml of LPS (equivalent to LPS ˜EC80 with regard to stimulation of IL-6 production in HWB under these assay conditions) was added to each well of a 384-well, sterile, endotoxin-free, polypropylene plate (Greiner 781281) containing 160 nL of various concentrations of test compound (each plate also contained positive and negative control wells to define the upper and lower limits of the assay signal). The plate was then placed in a thermoshaker incubator set to 370C (Boekel 270440). The final assay concentration (FAC) of test compound ranged from 60 to 0.0006 μM and the FAC of DMSO was 0.2%. After 4 hours, the assay plate was removed from the incubator and centrifuged at 700×g for 10 minutes. 5 μL of the resulting upper plasma layer was removed from each well and diluted 1:2 with 1×Dulbecco's phosphate buffered saline (DPBS). 5 μL of this diluted plasma was then transferred to a white 384-well low volume assay plate (Greiner 784080) containing 5 μL of combined anti-IL-6-Cryptate and anti-IL-6-XL665 detection antibodies (per manufacturer's protocol). The plate was then sealed with a Top Seal (Perkin Elmer 6005185) and incubated at room temperature (RT, 20° C.). After 16-18 hrs (overnight), the HTRF assay signal was read on an Envision 2103 plate reader using a Lance Delfia Dual/Bias mirror TRF laser excitation and emission was measured at 665 nm and 615 nm respectively. The percent (%) effect was calculated for each concentration of test compound and was relative to the amount of HTRF signal produced by the positive and negative control wells contained within each assay plate. The concentrations and % effect values for test compounds were plotted versus each other with a proprietary curve fitting program using a four-parameter logistic dose response equation and the concentration of compound required for 50% effect (IC50) was determined.
(In general: Time-resolved FRET reads energy transfer from a long-lived donor to a nearby acceptor.)

The text below walks through data of US20160368919A1, “NOVEL PYRIDINE PYRAZINONES AS BET-FAMILY BROMODOMAIN INHIBITORS” (Pfizer Inc., priority 2015, published 2016).

Regarding `CCC(=O)N(C)c1ccc2nc(NCCC(=O)O)c(=O)n(C3(c4ccccc4)CCC3)c2n1` [Example 12, N-{6-[methyl(propanol)amino]-3-oxo-4-(1-phenylcyclobutyl)-3,4-dihydropyrido[2,3-b]pyrazin-2-yl}-beta-alanine], the IC50 in experiment [1] came to 805 nM; in experiment [2], 18100 nM.

On to `CCC(=O)N(C)c1ccc2nc(NCCC(=O)O)c(=O)n(C3C(CC)CCC3CC)c2n1` (stereo not drawn) [Example 13, N-{4-(2,5-diethylcyclopentyl)-6-[methyl(propanoyl)amino]-3-oxo-3,4-dihdropyrido[2,3-b]pyrazin-2-yl}-beta-alanine], for which the half-inhibitory concentration (IC50) came to 111 nM in experiment [1] and 846 nM in experiment [2].

As for `COC[C@@H](c1ccccc1)n1c(=O)c(NCCC(=O)O)nc2ccc(N(C)C(C)=O)nc21` [Example 14, N-{6-[acetyl(methyl)amino]-4-[(1R)-2-methoxy-1-phenylethyl]-3-oxo-3,4-dihydropyrido[2,3-b]pyrazin-2-yl}-beta-alanine], the IC50 is 223 nM in experiment [1] and 4800 nM in experiment [2].

With `CCC[C@H](COC)n1c(=O)c(NCCC(=O)O)nc2ccc(N(C)C(=O)CC)nc21` [Example 17, N-{4-[(2R)-1-methoxypentan-2-yl]-6-[methyl(propanoyl)amino]-3-oxo-3,4-dihydropyrido[2,3-b]pyrazin-2-yl}-beta-alanine], the values for the 50% inhibitory concentration (IC50) in experiment [1] and in experiment [2] were 268 nM and 2430 nM, respectively.

In the case of `CCC(=O)N(C)c1ccc2nc(NC)c(=O)n(C(COC)COC)c2n1` [Example 20, N-(4-(1,3-dimethoxypropan-2-yl)-2-(methylamino)-3-oxo-3,4-dihydropyrido[2,3-b]pyrazin-6-yl)-N-methylpropionamide], the 50% inhibitory concentration (IC50) in experiment [1] was found to be 1070 nM; in experiment [2], 1460 nM.

Turning to `CC[C@@H](c1ccccc1)n1c(=O)c(NC(C)=O)nc2ccc(N(C)C(C)=O)nc21` [Example 21, N-{2-(acetylamino)-3-oxo-4-[(1S)-1-phenylpropyl]-3,4-dihydropyrido[2,3-b]pyrazin-6-yl}-N-methylacetamide], the concentration for half-maximal inhibition (IC50) in experiment [1] amounted to 207 nM; in experiment [2], 743 nM.

On to `CC[C@@H](c1ccccc1)n1c(=O)c(NCCC(=O)O)nc2ccc(N(C)C(=O)N(C)C)nc21` [Example 22, N-{6-[(dimethylcarbamoyl)(methyl)amino]-3-oxo-4-[(1S)-1-phenylpropyl]-3,4-dihydropyrido[2,3-b]pyrazin-2-yl}-beta-alanine], for which the 50% inhibitory concentration (IC50) in experiment [1] worked out at 913 nM; in experiment [2], 22500 nM.

On to `CCC(=O)N(C)c1ccc2nc(NCCC(=O)O)c(=O)n([C@H](c3ccccn3)C(C)C)c2n1` [Example 23, N-{6-[methyl(propanol)amino]-4-[(1S)-2-methyl-1-(pyridin-2-yl)propyl]-3-oxo-3,4-dihydropyrido[2,3-b]pyrazin-2-yl}-beta-alanine], for which the concentration for half-maximal inhibition (IC50) was 159 nM in experiment [1] and 2300 nM in experiment [2].

Turning to `CC[C@@H](c1ccccc1)n1c(=O)c(NCCC(=O)NC)nc2ccc(N(C)C(=O)C3CCO3)nc21` (stereo partly drawn) [Example 28, N-methyl-N-(2-{[3-(methylamino)-3-oxopropyl]amino}-3-oxo-4-[(1S)-1-phenylpropyl]-3,4-dihydropyrido[2,3-b]pyrazin-6-yl)oxetane-2-carboxamide], the half-inhibitory concentration (IC50) in experiment [1] was determined as 149 nM; in experiment [2], 366 nM.

Regarding `CCC(=O)N(C)c1ccc2nc(NCC(=O)NC)c(=O)n([C@@H](CC)c3ccccc3)c2n1` [Example 29, N-methyl-N-(2-{[2-(methylamino)-2-oxoethyl]amino}-3-oxo-4-[(1S)-1-phenylpropyl]-3,4-dihydropyrido[2,3-b]pyrazin-6-yl)propanamide], the figures for the half-inhibitory concentration (IC50) in experiment [1] and in experiment [2] were 102 nM and 239 nM, respectively.

Take `CCC(=O)N(C)c1ccc2nc(NCC(=O)NC)c(=O)n([C@H](c3ccccn3)C(C)C)c2n1` [Example 30, N-methyl-N-(2-{[2-(methylamino)-2-oxoethyl]amino}-4-[(1S)-2-methyl-1-(pyridin-2-yl)propyl]-3-oxo-3,4-dihydropyrido[2,3-b]pyrazin-6-yl)propanamide]: the IC50 in experiment [1] was 348 nM; in experiment [2] it was 722 nM.

The term IC50 denotes the concentration needed to halve the response being measured. A higher IC50 goes with weaker potency in that assay.
